Test results reported in US20060160777A1, “New use of GABAbeta receptor agonists” (priority 2004, published 2006).
Where two headings read alike, the source gives them in different places.

Assays:
[1] = test system: citric acid-induced cough in conscious guinea pigs; experiment: Citric acid-induced cough in conscious guinea pigs, GABAB agonists given subcutaneously; format: in vivo, guinea pig
Text: Citric acid-induced cough was evoked in conscious guinea pigs. Male Hartley guinea pigs (300-400 g) were placed in a chamber with a continuous flow of air. Positive and negative pressure changes within the chamber were used to monitor the expiratory and inspiratory phases of respiration. A nebuliser was connected in series with the air pump, allowing aerosol delivery of citric acid (0.1-1 M).
Cough was defined based on the visual appearance of the respiratory manoeuvre, the characteristic sound, and by a signature pressure trace typified by an expiratory effort that produced a positive chamber pressure 10-20 times higher than that associated with tidal breathing and proceeded by a rapid and pronounced inspiratory effort. All data were recorded digitally. The total number of coughs and the estimated concentration of citric acid evoking 1, 2 and 5 coughs were determined for each experiment.
(§1) Four treatment groups were employed in this study: Vehicle control, baclofen, (2R)-(3-amino-2-fluoropropyl) phosphinic acid and (3-aminopropyl) phosphinic acid (3-APPiA). […] […] To assess CNS depressant effects of these compounds, their effects on respiratory rate and respiratory pattern (inspiratory and expiratory times) were assessed and compared to control.

[2] = Pharmacokinetics in female dogs after single intravenous and oral doses; format: in vivo, dog; conditions: for half-life / clearance / Vd: Beagle and Labrador; for Vd: read-out: Vss (volume of distribution at steady state); for F (oral availability): oral vs intravenous
Method: In the present studies dogs received single intravenous and oral doses of 3-APPiA, (2R)-(3-amino-2-fluoropropyl) phosphinic acid (A), (2S)-(3-amino-2-hydroxypropyl) phosphinic acid A), (3-amino-2-oxopropyl) phosphinic acid (C) and 3-amino-2-fluoropropyl) phosphinic acid (D) at therapeutic doses. The plasma concentrations of each compound was determined by LC-MS. The mean values of the total plasma clearance (CL), the half-life (TA), the volume of distribution at steady state (Vs), the oral availability (F), are summarised in Table 5.
Eight female Beagle and four Labrador dogs were used. The dogs were identified by a number tattooed in the ear. The animals had free access to water and were fed once a day (GLP diet) at approximately 1 p.m. On the experimental day, the dogs had not eaten since approximately 1 p.m. on the day before and were not allowed to eat until 6 hours after dosing.
The test formulations were administered intravenously in a superficial front leg vein (this vein was not used for blood sampling during 2 hours after dosing) or orally by gavage. The gavage tube was rinsed with about 20 mL of water and emptied with 20 mL of air before it was taken out. The oral and intravenous dose volumes were 1 and 0.5 mL/kg, respectively
Blood samples of about 2 mL were taken from a superficial front leg vein pre-dose and at 5, 10, 20, 40, 90 minutes, 3, 5, 8 and 24 hours after dosing. The blood samples were collected in heparinized glass tubes (Venoject®) and centrifuged (10 min, 3000 g, +4° C.). The plasma was then transferred to plastic tubes and stored at about −20° C. until analysis.
The pharmacokinetic parameters were calculated by non-compartment analysis using WinNonlin Professional (Pharsight Corporation, California, USA). The area under the plasma concentration-time curve (AUC(0-t)) was calculated using a combination of the linear and logarithmic trapezoidal rule from the time of administration to the sampling time with the last determinable plasma concentration (3, 5, 8 or 24 h). For the intravenous bolus dose, the concentration at time zero (C(0)) was estimated by log-linear regression of the first two concentration-time points. The AUC(0-t) was extrapolated to infinity by adding Ct/k. Ct was the predicted plasma concentration at the time of the last plasma sample with a determinable concentration and k was the apparent terminal rate constant. Ct and k were obtained by linear least-squares regression analysis of the logarithm of the last 3 to 5 plasma concentrations versus time. The apparent terminal half-life (t1/2) was calculated as In 2/k, wherein k is elimination constant, i.e. the slope of the decreasing curve.
The oral bioavailability (F) for each dog was calculated from individual AUC (area under the curve) and dose values. The calculation was made as follows: (AUCpo·Doseiv/AUCic·Dosepo)·100.
Estimates of total plasma clearance and of volume of distribution were calculated from plasma concentration data obtained after intravenous bolus injection. The total plasma clearance (CL) was calculated as Dosei.v./AUCi.v., and the volume of distribution at steady is state (Vss) was calculated as MRTi.v.·CL. The mean residence time after intravenous administration (MRTi.v.) was calculated as AUMC/AUC for bolus injection, wherein AUMC is the area under the first-moment versus time curve. The results are presented by descriptive statistics. The pharmacokinetic parameters are presented as geometric mean and range.

conscious guinea pigs = experiment: Effects of subcutaneously administered GABAB agonists on baseline respiratory rate in conscious guinea pigs; conditions: placebo 96.2 ± 3.8
Method: as §1
B. Effects of Subcutaneously Administered GABAB Agonists on Baseline Respiratory Rate in Conscious Guinea Pigs

[3] = 0.3 mg/kg s.c., 30 min before challenge, citric acid 0 M, mean ± spread
[4] = 0.3 mg/kg s.c., citric acid 0.01 M
[5] = 0.3 mg/kg s.c., citric acid 0.1 M
[6] = 0.3 mg/kg s.c., citric acid 0.3 M
[7] = 0.3 mg/kg s.c., citric acid 1 M
[8] = 3 mg/kg s.c., citric acid 0.01 M
[9] = 3 mg/kg s.c., citric acid 0.1 M
[10] = 3 mg/kg s.c., citric acid 0.3 M
[11] = dog, in vivo, female dogs, geometric mean, dose 2-7 μmol/kg per compound, read-out: T1/2 (half-life) (converted)
[12] = dog, in vivo, female dogs, intravenous bolus, geometric mean, dose 2-7 μmol/kg per compound, read-out: CL (total plasma clearance)
[13] = dog, in vivo, female dogs, intravenous bolus, geometric mean, dose 2-7 μmol/kg per compound
[14] = female dogs, geometric mean, dose 2-7 μmol/kg per compound

| SMILES | Cumulative number of coughs evoked by citric acid [1, 3] | Cumulative number of coughs evoked by citric acid [1, 4] | Cumulative number of coughs evoked by citric acid [1, 5] | Cumulative number of coughs evoked by citric acid [1, 6] | Cumulative number of coughs evoked by citric acid [1, 7] | Cumulative number of coughs evoked by citric acid ([1]; 3 mg/kg s.c., citric acid 0 M) | Cumulative number of coughs evoked by citric acid [1, 8] | Cumulative number of coughs evoked by citric acid [1, 9] | Cumulative number of coughs evoked by citric acid [1, 10] | Cumulative number of coughs evoked by citric acid ([1]; 3 mg/kg s.c., citric acid 1 M) | half-life [2, 11] [h] | clearance [2, 12] [mL/min/kg] | Vd [2, 13] [L/kg] | F (oral availability) [2, 14] [%] | Baseline respiratory rate (result of study B, mean) (conscious guinea pigs; 0.3 mg/kg s.c.) | also measured |
| --- | --- | --- | --- | --- | --- | --- | --- | --- | --- | --- | --- | --- | --- | --- | --- | --- |
| NC[C@@H](F)C[PH](=O)O [A, (2R)-(3-amino-2-fluoropropyl) phosphinic acid] | 0 ± 0 | 0 ± 0 | 3.4 ± 1.1 | 11.4 ± 1.3 | 27.6 ± 3.7 | 0 ± 0 | 0.1 ± 0.1 | 1.9 ± 1.1 | 9.0 ± 3.8 | 15.4 ± 3.6 |  |  |  |  |  | Cumulative number of coughs evoked by citric acid ([1]; 10 mg/kg s.c., citric acid 0 M): 0 ± 0; Cumulative number of coughs evoked by citric acid ([1]; 10 mg/kg s.c., citric acid 0.01 M): 0 ± 0; Cumulative number of coughs evoked by citric acid ([1]; 10 mg/kg s.c., citric acid 0.1 M): 0.6 ± 0.3; Cumulative number of coughs evoked by citric acid ([1]; 10 mg/kg s.c., citric acid 0.3 M): 3.8 ± 1.3; Cumulative number of coughs evoked by citric acid ([1]; 10 mg/kg s.c., citric acid 1 M): 9.7 ± 1.9; half-life ([2]; female, dog, in vivo): 7.5 h; clearance ([2]; female, dog, in vivo, iv): 2.1 mL/min/kg |
| NC[C@H](O)C[PH](=O)O [B, (2S)-(3-amino-2-hydroxypropyl) phosphinic acid] |  |  |  |  |  |  |  |  |  |  | 0.5 | 6.67 | 0.25 | 86 |  |  |
| NCC(CC(=O)O)c1ccc(Cl)cc1 (stereo not drawn) [Baclofen, 4-amino-3-(chlorophenyl)butanoic acid] | 0 ± 0 | 1.0 ± 0 | 3.0 ± 0.6 | 12.3 ± 7.4 | 25.7 ± 4.8 | 0 ± 0 | 0 ± 0 | 1.0 ± 0.5 | 6.0 ± 1.9 | 14.3 ± 3.8 |  |  |  |  | 96.8 ± 8.5 | Baseline respiratory rate (result of study B, mean) (conscious guinea pigs; 3 mg/kg s.c.): 78.1 ± 17.6 |
| NCC(=O)C[PH](=O)O [C, (3-amino-2-oxopropyl) phosphinic acid] |  |  |  |  |  |  |  |  |  |  | 2.5 | 8.2 | 0.74 | 60 |  |  |
| NCCC[PH](=O)O [Compound 3-APPiA, (3-aminopropyl) phosphinic acid] | 0 ± 0 | 0 ± 0 | 0.2 ± 0.2 | 7.8 ± 3.0 | 28.8 ± 2.9 | 0 ± 0 | 0 ± 0 | 1.7 ± 0.9 | 3.9 ± 1.6 | 16.1 ± 5.2 | 0.52 | 20 | 0.55 | 10 | 93.0 ± 5.6 | Baseline respiratory rate (result of study B, mean) (conscious guinea pigs; 3 mg/kg s.c.): 97.9 ± 4.2 |
| NCC(F)C[PH](=O)O (stereo not drawn) [D] |  |  |  |  |  |  |  |  |  |  |  |  |  |  |  | T1/2 (half-life) ([2]; dog, in vivo): 8.2 h; CL (total plasma clearance) ([2]; dog, in vivo, iv): 5.2 mL/min/kg; Vss (volume of distribution at steady state) ([2]; dog, in vivo, iv): 2.3 L/kg |
| CP(=O)(O)CCCN [SKF97541, (3-aminopropyl)methyl phosphinic acid] | 0 ± 0 | 0 ± 0 | 0.4 ± 0.2 | 3.8 ± 1.6 | 19.2 ± 5.8 |  |  |  |  |  |  |  |  |  | 68.6 ± 6.0 | Baseline respiratory rate (result of study B, mean) (conscious guinea pigs; 0.1 mg/kg s.c.): 79.2 ± 16.5 |
